The numbers were not newly measured in patent US20250304714A1, “Methods of Treating Metastatic Castration-Resistant Prostate Cancer with Bispecific Anti-PSMA x Anti-CD3 Antibodies Alone or in Combination with Anti-PD-1 Antibodies” (Regeneron Pharmaceuticals, Inc., priority 2022, published 2025), which cites them from elsewhere.

The conditions of data set [1]: intended dose ˜9±1 mCi per IV injection; cited from earlier work.
The conditions of data set [2]: multiple phase 1 to 3 studies, prostate cancer patients; cited from earlier work.

Turning to `O=C(O)CC[C@H](NC(=O)N[C@@H](CCCCNC(=O)c1ccc(F)nc1)C(=O)O)C(=O)O` [DCFPyL], the “Radiation dose from the PET/CT scan” value in data set [1] is reported as “about 7.4 mSv”. In data set [2], the tolerability entry is recorded as “well tolerated”.
